From ChEMBL document CHEMBL5143660, “Investigation on the chemical space of the substituted triazole thio-benzoxazepinone RIPK1 inhibitors” (Eur J Med Chem, 2022) come the findings set out here.

Data set [1] can be described thus: Cytotoxicity against human HT-29 cells assessed as reduction in cell viability. The data set is classed as toxicity, cell-based.
The test system of data set [2] is HT-29. The experiment in a line: Anti-necroptic activity in human HT-29 cells assessed as inhibition of TSZ induced necroptosis measured after 16 to 24 hrs by celltiter-glo luminescent cell viability assay. The data set is classed as functional, cell-based. (ATP-based viability assays read luminescence as a measure of living cells.)
For data set [3], the target named is T1, Receptor-interacting serine/threonine-protein kinase 1 (Homo sapiens, UniProt Q13546).
T1 sequence (Q13546 whole entry): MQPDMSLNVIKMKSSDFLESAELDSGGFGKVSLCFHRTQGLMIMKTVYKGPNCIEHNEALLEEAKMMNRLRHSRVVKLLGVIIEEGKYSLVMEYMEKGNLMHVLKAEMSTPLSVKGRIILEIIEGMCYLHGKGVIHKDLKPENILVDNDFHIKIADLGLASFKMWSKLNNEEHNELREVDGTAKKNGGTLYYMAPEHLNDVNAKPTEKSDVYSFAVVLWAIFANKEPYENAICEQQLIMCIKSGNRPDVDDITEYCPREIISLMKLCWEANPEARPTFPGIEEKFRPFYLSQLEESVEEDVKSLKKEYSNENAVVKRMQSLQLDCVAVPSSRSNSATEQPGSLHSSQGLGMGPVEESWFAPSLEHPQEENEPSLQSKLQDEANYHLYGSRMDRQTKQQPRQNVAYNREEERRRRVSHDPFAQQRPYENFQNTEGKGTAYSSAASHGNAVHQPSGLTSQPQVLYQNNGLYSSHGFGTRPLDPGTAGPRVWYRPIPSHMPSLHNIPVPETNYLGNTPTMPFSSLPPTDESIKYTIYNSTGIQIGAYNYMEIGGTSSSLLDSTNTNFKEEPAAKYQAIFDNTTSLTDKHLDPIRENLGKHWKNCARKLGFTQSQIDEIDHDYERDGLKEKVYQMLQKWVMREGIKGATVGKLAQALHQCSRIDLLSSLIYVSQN
Nature of the data set: Binding affinity to wild-type human partial length RIPK1 (M1 to K305 residues) expressed in bacterial expression system incubated for 1 hr under shaking condition by Kinomescan method.

Bounds are passed on as bounds.

The CC50 is the concentration giving 50% cytotoxicity. What is called EC50 is the concentration needed to bring the measured effect to its halfway point. By Kd is commonly meant the equilibrium constant for the complex coming apart. The low end stands for higher affinity, the high end for lower affinity.

As for `CCCn1nc(C(=O)N[C@H]2COc3ccccc3N(C)C2=S)nc1Cc1ccccc1`, in data set [1], the CC50 is more than 100 µM. Also, the EC50 in data set [2] was 288 nM.

Turning to `CN1C(=S)[C@@H](NC(=O)c2nc(Cc3ccccc3)n(CCCC#N)n2)COc2ccccc21`, the CC50 in data set [1] is more than 100 µM. Further, the EC50 in data set [2] amounted to 2400 nM.

As to `CN1C(=S)[C@@H](NC(=O)c2nc(Cc3ccccc3)n(CCCC(F)(F)F)n2)COc2ccccc21`, the CC50 in data set [1] is more than 100 µM. In data set [2], the concentration giving a half-maximal response (EC50) was found to be 2380 nM.

Consider `Cc1cnc(-n2nc(C(=O)N[C@H]3COc4ccccc4N(C)C3=S)nc2Cc2ccccc2)nc1`, for which, in data set [1], the CC50 is more than 100 µM. Besides, in data set [2], the concentration for a half-maximal effect (EC50) worked out at 1950 nM.

On to `CN1C(=S)[C@@H](NC(=O)c2nc(Cc3ccccc3)n(C3CCCC3)n2)COc2ccccc21`, for which the CC50 in data set [1] is more than 100 µM. In addition, the EC50 in data set [2] worked out at 3530 nM.

Consider `CN1C(=S)[C@@H](NC(=O)c2nc(Cc3ccccc3)n(CCCO)n2)COc2ccccc21`, for which the CC50 in data set [1] was more than 100 µM. In addition, in data set [2], the EC50 is 208 nM.

Consider `CN1C(=S)[C@@H](NC(=O)c2nc(Cc3ccccc3)n(C3CCNCC3)n2)COc2ccccc21`, for which the CC50 in data set [1] is more than 100 µM. Besides, the EC50 in data set [2] turned out to be 1000 nM.

In the case of `COCCn1nc(C(=O)N[C@H]2COc3ccccc3N(C)C2=S)nc1Cc1ccccc1`, the 50% cytotoxic concentration (CC50) in data set [1] was more than 100 µM. In addition, the EC50 in data set [2] is 566 nM.

`CC(C)Cn1nc(C(=O)N[C@H]2COc3ccccc3N(C)C2=S)nc1Cc1ccccc1`: in data set [1], the 50% cytotoxic concentration (CC50) is more than 100 µM. Also, the half-maximal effective concentration (EC50) in data set [2] turned out to be 1230 nM.

On to `CN1C(=S)[C@@H](NC(=O)c2nc(Cc3ccccc3)n(C3CCOCC3)n2)COc2ccccc21`, for which, in data set [1], the 50% cytotoxic concentration (CC50) is more than 100 µM. For the same compound, in data set [2], the EC50 was 2260 nM.

Regarding `CC(C)CCn1nc(C(=O)N[C@H]2COc3ccccc3N(C)C2=S)nc1Cc1ccccc1`, in data set [1], the CC50 was more than 100 µM. Besides, the 50% effective concentration (EC50) in data set [2] amounted to 3640 nM.

On to `CN1C(=S)[C@@H](NC(=O)c2nc(Cc3ccccc3)n(CC3COC3)n2)COc2ccccc21`, for which the CC50 in data set [1] was more than 100 µM. In addition, the EC50 in data set [2] came to 2820 nM.

As for `CN1C(=S)[C@@H](NC(=O)c2nc(Cc3ccccc3)n(CC3CCOCC3)n2)COc2ccccc21`, the CC50 in data set [1] is more than 100 µM. Moreover, in data set [2], the EC50 is 6310 nM.

Take `CCCCCn1nc(C(=O)N[C@H]2COc3ccccc3N(C)C2=S)nc1Cc1ccccc1`: the CC50 in data set [1] was more than 100 µM. The EC50 in data set [2] came out at 805 nM.

As for `CN1C(=S)[C@@H](NC(=O)c2nc(Cc3ccccc3)n(C3CCCCC3)n2)COc2ccccc21`, the half-maximal cytotoxic concentration (CC50) in data set [1] was more than 100 µM. In data set [2], the EC50 was 4000 nM.

As for `CN1C(=S)[C@@H](NC(=O)c2nc(Cc3ccccc3)n(CCC(F)(F)F)n2)COc2ccccc21`, the CC50 in data set [1] was more than 100 µM. In addition, the EC50 in data set [2] amounted to 1550 nM.

Regarding `CC(C)n1nc(C(=O)N[C@H]2COc3ccccc3N(C)C2=S)nc1Cc1ccccc1`, in data set [1], the CC50 is more than 100 µM. Moreover, the EC50 in data set [2] came out at 360 nM.

In the case of `CN1C(=S)[C@@H](NC(=O)c2nc(Cc3ccccc3)n(CC3CCOC3)n2)COc2ccccc21` (stereo not given in full), the CC50 in data set [1] is more than 100 µM. In data set [2], the EC50 came to 4420 nM.

Turning to `CN1C(=S)[C@@H](NC(=O)c2nc(Cc3ccccc3)n(CC(F)(F)F)n2)COc2ccccc21`, the CC50 in data set [1] is more than 100 µM. Moreover, the EC50 in data set [2] turned out to be 36 nM. Further, the Kd in data set [3] came to 267 nM.

On to `CCn1nc(C(=O)N[C@H]2COc3ccccc3N(C)C2=S)nc1Cc1ccccc1`, for which the CC50 in data set [1] was more than 100 µM. Also, the EC50 in data set [2] turned out to be 17 nM. The compound further yielded a dissociation constant (Kd) in data set [3] of 79 nM.

Consider `CN1C(=O)[C@@H](NC(=O)c2nnc(Cc3ccccc3)[nH]2)COc2ccccc21` [GSK2982772], for which the 50% cytotoxic concentration (CC50) in data set [1] was more than 50 µM.

For `CCCCn1nc(C(=O)N[C@H]2COc3ccccc3N(C)C2=S)nc1Cc1ccccc1`, the CC50 in data set [1] is more than 100 µM. For the same compound, the EC50 in data set [2] amounted to 510 nM.

Turning to `CN1C(=S)[C@@H](NC(=O)c2nc(Cc3ccccc3)n(C3CCNC3)n2)COc2ccccc21` (stereo not given in full), the CC50 in data set [1] is more than 100 µM. Also, the EC50 in data set [2] stood at 1070 nM.

For `CN1C(=S)[C@@H](NC(=O)c2nc(Cc3ccccc3)n(Cc3ccccc3)n2)COc2ccccc21`, the CC50 in data set [1] was more than 100 µM. The EC50 in data set [2] came to 414 nM.

For `CN1C(=S)[C@@H](NC(=O)c2nc(Cc3ccccc3)n(CCCF)n2)COc2ccccc21`, the CC50 in data set [1] is more than 100 µM. For the same compound, the EC50 in data set [2] was determined as 4760 nM.

Take `CN1C(=S)[C@@H](NC(=O)c2nc(Cc3ccccc3)n(C3CCC3)n2)COc2ccccc21`: the CC50 in data set [1] was more than 100 µM. Moreover, the EC50 in data set [2] is 181 nM. Further, in data set [3], the affinity, expressed as Kd, was 301 nM.

Consider `CN1C(=S)[C@@H](NC(=O)c2nc(Cc3ccccc3)n(CCCCCC#N)n2)COc2ccccc21`, for which, in data set [1], the CC50 was more than 100 µM. The concentration for a half-maximal effect (EC50) in data set [2] stood at 3830 nM.

Consider `CN1C(=S)[C@@H](NC(=O)c2nc(Cc3ccccc3)n(C3CCN(C(=O)OC(C)(C)C)C3)n2)COc2ccccc21` (stereo not given in full), for which, in data set [1], the CC50 was more than 100 µM. The EC50 in data set [2] is more than 10000 nM.

In the case of `CN1C(=S)[C@@H](NC(=O)c2nc(Cc3ccccc3)n(C3CCN(C(=O)OC(C)(C)C)CC3)n2)COc2ccccc21`, the CC50 in data set [1] is more than 100 µM. For the same compound, the EC50 in data set [2] was more than 10000 nM.

In the case of `CN1C(=S)[C@@H](NC(=O)c2nc(Cc3ccccc3)n(CC(F)F)n2)COc2ccccc21`, in data set [1], the CC50 was more than 100 µM. Further, the EC50 in data set [2] is 8.9 nM.

Take `CN1C(=S)[C@@H](NC(=O)c2nc(Cc3ccccc3)n(C3COC3)n2)COc2ccccc21`: in data set [1], the CC50 is more than 100 µM. Besides, the EC50 in data set [2] was determined as 916 nM.

As for `CN1C(=S)[C@@H](NC(=O)c2nc(Cc3ccccc3)n(C3CCOC3)n2)COc2ccccc21` (stereo not given in full), the CC50 in data set [1] was more than 100 µM. The EC50 in data set [2] was 1580 nM. Also, in data set [3], the dissociation constant (Kd) turned out to be 272 nM.

Turning to `CN1C(=S)[C@@H](NC(=O)c2nc(Cc3ccccc3)n(-c3ncccn3)n2)COc2ccccc21`, in data set [1], the half-maximal cytotoxic concentration (CC50) was more than 100 µM. In addition, the 50% effective concentration (EC50) in data set [2] was determined as 3970 nM.

On to `CN1C(=S)[C@@H](NC(=O)c2n[nH]c(Cc3ccccc3)n2)COc2ccccc21`, for which the CC50 in data set [1] is more than 50 µM. In addition, the Kd in data set [3] amounted to 31 nM.

Take `CN1C(=S)[C@@H](NC(=O)c2nc(Cc3ccccc3)n(CCCCC#N)n2)COc2ccccc21`: the CC50 in data set [1] was more than 100 µM. Moreover, the EC50 in data set [2] was 2680 nM.

Consider `CN1C(=S)[C@@H](NC(=O)c2nc(Cc3ccccc3)n(C3CCCCCC3)n2)COc2ccccc21`, for which the CC50 in data set [1] is more than 100 µM. Further, the EC50 in data set [2] is 5520 nM.
